The text below walks through data of paper PMC7982526, “Discovery of New α-Glucosidase Inhibitors: Structure-Based Virtual Screening and Biological Evaluation” (Frontiers in Chemistry, 2021).

Series [1] addresses T1, α-Glucosidase (Sigma, G5003) derived from baker's yeast (Saccharomyces cerevisiae, UniProt P53341).
T1 construct: purchased Sigma-Aldrich G5003
Nature of the series: biochemical. The series is classed as biochemical. Particulars: for inhibition ratio against α-glycosidase: at 100 μM; for IC50: mean ± SD of three independent experiments, six concentrations, 37°C, pH 6.8, read-out: IC50 against α-glycosidase. The protocol:
The α-glucosidase inhibitory evaluation of the purchased 52 compounds was performed according to the previously described protocol ([Tang et al., 2014]; [Ye et al., 2019]). α-Glucosidase (Sigma, G5003) derived from baker’s yeast, and pNPG (Sigma, N1377) and the substrate were both purchased from Sigma-Aldrich. […] The compounds and α-glucosidase were preincubated in phosphate buffer (37°C, 15 min). Then, 25 μL substrate buffer was added to the system to start the reaction, and the incubation was continued at 37°C for 15 min. Finally, the reaction was terminated by the addition of 50 μL 0.2 M reaction termination solution. The optical density (OD) was measured at an absorbance wavelength of 405 nm using a microplate reader (Tecan, Switzerland). The IC50 values were estimated with six different concentrations, and each sample was measured three times in parallel experiments.

In series [2] the target is T2, α-glucosidase (Saccharomyces cerevisiae, UniProt P53341).
T2 construct: purchased Sigma-Aldrich G5003
T2 sequence (P53341 whole entry): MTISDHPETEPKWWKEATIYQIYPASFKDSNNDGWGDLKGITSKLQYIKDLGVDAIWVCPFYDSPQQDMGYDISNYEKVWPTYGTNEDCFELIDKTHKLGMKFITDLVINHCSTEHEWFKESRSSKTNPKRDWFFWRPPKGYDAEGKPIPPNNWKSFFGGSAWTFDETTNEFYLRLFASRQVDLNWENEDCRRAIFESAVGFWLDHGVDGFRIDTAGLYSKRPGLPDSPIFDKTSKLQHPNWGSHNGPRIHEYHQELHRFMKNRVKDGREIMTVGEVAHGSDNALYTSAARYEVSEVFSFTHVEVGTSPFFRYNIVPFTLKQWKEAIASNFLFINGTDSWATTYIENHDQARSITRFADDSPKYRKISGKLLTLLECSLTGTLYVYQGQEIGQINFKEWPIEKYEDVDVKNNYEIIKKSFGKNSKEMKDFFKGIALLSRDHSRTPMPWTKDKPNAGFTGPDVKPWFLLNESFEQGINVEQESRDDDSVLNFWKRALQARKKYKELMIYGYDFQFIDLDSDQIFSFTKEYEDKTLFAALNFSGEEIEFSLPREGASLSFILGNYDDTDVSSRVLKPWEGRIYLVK
Nature of the series: Kinetic assay, Lineweaver-Burk plot analysis. The series is classed as biochemical. The note with it: for inhibition type: Lineweaver-Burk plot analysis; for Ki: Lineweaver-Burk plot, substrate pNPG, secondary plot of slopes, read-out: estimated Ki. The procedure:
The inhibition type of the inhibitors against α-glucosidase activities was evaluated based on a described method ([Hou et al., 2009]). Increasing concentrations of substrates pNPG were used in the absence or presence of tested compounds at four different concentrations around the IC50 values. The inhibitory kinetics of the investigated compounds on α-glucosidase was analyzed using the Lineweaver–Burk plot of the substrate concentration and velocity.

Series [3] deals with T2, α-glucosidase. As to the kind of experiment: Fluorescence quenching experiment. The series is classed as binding, baker's yeast. Particulars: increasing concentration of compound, 30 min, 37°C, excitation 290 nm. The protocol:
According to the previously reported method ([Aguilar-Moncayo et al., 2010]), all fluorescence spectra were measured on a fluorescence spectrophotometer (Agilent Cary Eclipse) equipped with a 10.0-mm quartz cell and a thermostat bath. In the fluorescence spectrophotometer, α-glucosidase (1 U/ml) was pretreated with certain concentrations of inhibitors for 30 min at 37°C. 100 μL of the above solution (pH 6.8) was added accurately to the quartz cell. The blank was used for buffer spectrum values. The fluorescence emission spectra were measured at 37°C. The excitation wavelength was 290 nm, and the emission spectrum was recorded from 320 to 500 nm.

The nature of series [4]: Cell viability assay (MTT). In kind it is cell-based. The note with it: human, LO2 cells (normal hepatocyte cell line), 48 h treatment, read-out: IC50 toward LO2 cells (cytotoxicity). The protocol:
The LO2 cell line was cultured in a proper medium supplemented with 10% fetal bovine serum in a humidified atmosphere of 5% CO2 at 37°C. Cell suspensions were plated in 96-well plates at a density of 2 × 10^4 […]. Compounds were solubilized in DMSO at six different concentrations. After incubation for 24 h, the cells were treated with various concentrations of tested substances for 48 h and then incubated with 100 μL of MTT at 37°C for 2 h. The formazan dye product was measured by the absorbance at 490 nm on a Tecan Spark multimode microplate reader (Switzerland).

Usually IC50 stands for the midpoint of a concentration-inhibition curve. One may read the Ki as the dissociation constant of the complex between target and ligand, obtained from inhibition or displacement.

Molecules are shown by their SMILES. Where only a bound is given, the exact number is not on record here.

T1 sequence (P53341 whole entry): as above

Consider `O=C(Nc1ccccc1C(=O)NCc1ccco1)c1ccc(F)cc1` [compound 37], for which, in series [1], the “inhibition ratio against α-glycosidase” value is reported as “above 50%” and the IC50 came to 31.3 ± 3.11 µM. Besides, on α-glucosidase [2], the inhibition type entry was “noncompetitive” and the Ki is 11.3 µM. In addition, the “fluorescence quenching of α-glycosidase” value on α-glucosidase [3] is “gradually quenched in a type of concentration-dependent manner”. For the same compound, the IC50 at 48 h in series [4] was greater than 100 µM.
As for `COc1ccc(-c2c(C#N)c(SCc3nc4ccccc4[nH]3)nc(C)c2C(C)=O)cc1` [compound 44], in series [1], the “inhibition ratio against α-glycosidase” value is recorded as “above 50%” and the IC50 came out at 9.99 ± 0.43 µM. On α-glucosidase [2], the inhibition type entry was “noncompetitive” and the Ki is 15.4 µM. Moreover, at α-glucosidase [3], the “fluorescence quenching of α-glycosidase” value is on record as “gradually quenched in a type of concentration-dependent manner”. Further, in series [4], the IC50 at 48 h is greater than 100 µM.
As for `CSc1nc(N)nc(SCC(=O)c2ccc3c(c2)OCO3)c1C#N` [compound 22], in series [1], the “inhibition ratio against α-glycosidase” value is reported as “above 50%” and the IC50 came out at 35.2 ± 2.14 µM. At α-glucosidase [2], the inhibition type entry was “noncompetitive” and the Ki is 11.3 µM. Besides, the “fluorescence quenching of α-glycosidase” value at α-glucosidase [3] was “gradually quenched in a type of concentration-dependent manner”. In addition, in series [4], the IC50 at 48 h was greater than 100 µM.
Take `Cc1cccc(-c2cc3ncn(CC(=O)NC(=O)Nc4ccccc4)c(=O)c3s2)c1` [compound 7]: in series [1], the “inhibition ratio against α-glycosidase” value was “above 50%” and the half-maximal inhibitory concentration (IC50) worked out at 17.4 ± 1.32 µM. On α-glucosidase [2], the inhibition type entry is “noncompetitive” and the Ki was 24.2 µM. Moreover, the “fluorescence quenching of α-glycosidase” value on α-glucosidase [3] is “gradually quenched in a type of concentration-dependent manner”. Further, the IC50 at 48 h in series [4] was greater than 100 µM.
